Data published in patent publication US12521393B2, “Cytotoxicity targeting chimeras for CCR2-expressing cells” (GLAXOSMITHKLINE INTELLECTUAL PROPERTY DEVELOPMENT LIMITED, priority 2021, dated 2026).

Key:
[1] = molecular target: anti-cotinine antibody (SEQ ID NO: 11/12, rabbit variable region with human IgG1 Fc DE mutation); assay: SPR binding of anti-cotinine antibody to ARM compounds, Biacore T200, 37° C. (Example 202); conditions: SPR Biacore T200, 37° C., pH 7.4, antibody SEQ ID NO: 11/12 captured on protein A; Kd in molar
Description: Anti-cotinine antibodies having a heavy chain sequence of SEQ ID NO: 11 and a light chain sequence of SEQ ID NO: 12 (rabbit variable region with human IgG1 Fc domain containing a DE mutation (S239D/1332E)) were captured on one or more flow cells of a protein A sensor chip (Cytiva) using a Biacore T200 while reserving flow cell 1 as a reference. Following capture, a 3000 second wait step was included to reduce drift during compound analysis. ARM compounds of Formula (I) were then injected at 100 μL/min with 200 and 2000 second association and dissociation times. The entire experiment was run at 37° C. with running buffer containing 10 mM HEPES pH 7.4, 150 mM NaCl, 0.005% P20 and 1% DMSO. ARM compounds of Formula (I) were titrated with a top concentration of 200 nM using a 3-fold 5-point dilution series and a corresponding 5-injection buffer cycle was run for blank subtraction. Data were double referenced by subtracting the response of the reference flow cell from that of the antibody-containing flow cell and subsequently subtracting the referenced blank sensorgrams. Following compound analysis, the surface was regenerated using a 30 second injection of pH 1.5 glycine at a flow rate of 30 μL/min after which antibody was re-captured. The experiment was run using Biacore T200 control software and evaluated using Biacore T200 Evaluation software. Curves were fit with a 1:1 kinetic binding model to obtain kon (1/Ms), koff(1/s), Kd (M) determined as koff/kon, and residence time determined as 1/koff (s).
Anti-cotinine antibody was tested for binding to ARMs compounds of Formula (I) of the invention in the above assay in or more experimental runs and the results are shown in Table 5 below. Affinity is reported as a pKd value. The pKd value is the negative log of the Kd value, wherein the Kd value is the dissociation constant measured in molar (M) as noted above. For compounds tested in more than one experimental run, the pKd value is reported as an average

[2] = test system: endogenous target monocytes in human PBMC; assay: PBMC ex vivo monocyte depletion flow cytometry assay (Example 200); assay type: cell-based; conditions: with anti-cotinine antibody (SEQ ID NO: 11/12), 18-24 hours, EC50 in molar, read-out: Ex Vivo Depletion Assay pEC50 (converted)
Summary of the method: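 Monocyte depletion is reported as pEC50, averaged or given individually across runs, and read by flow cytometry staining CD45, CD14 and CD4 with a viability dye. Compounds, diluted four-fold over 11 points from 1 mM DMSO stocks, were combined with 30 μg/mL Fc-enhanced anti-cotinine antibody and human PBMC, then incubated 18-24 h at 37° C.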

Row | Structure (SMILES) | pKd of Antibody for ARM Compound of Formula (I) [1] | EC50 [2] [nM]
1 | CC(C)N(C)[C@@H]1CC[C@H](N2CC[C@H](Nc3ncnc4ccc(C(F)(F)F)cc34)C2=O)[C@H](NC(=O)CCOCCNC(=O)[C@H]2CC[C@@H](NC(=O)CCOCCNC(=O)[C@H]3CC(=O)N(C)[C@@H]3c3cccnc3)CC2)C1 [Example 110, (2S,3S)-N-(2-(3-(((1S,4R)-4-((2-(3-(((1R,2S,5R)-5-(Isopropyl(methyl)amino)-2-((S)-2-oxo-3-((6-(trifluoromethyl)quinazolin-4-yl)amino)pyrrolidin-1-yl)cyclohexyl)amino)-3-oxopropoxy)ethyl)carbamoyl)cyclohexyl)amino)-3-oxopropoxy)ethyl)-1-methyl-5-oxo-2-(pyridin-3-yl)pyrrolidine-3-carboxamide] | 8.9085 | 0.0501
2 | CC(C)N(C)[C@@H]1CC[C@H](N2CC[C@H](Nc3ncnc4ccc(C(F)(F)F)cc34)C2=O)[C@H](NC(=O)[C@H]2CC[C@@H](NC(=O)CCO[C@H]3CC[C@H](OCCNC(=O)[C@H]4CC(=O)N(C)[C@@H]4c4cccnc4)CC3)CC2)C1 [Example 112, (2S,3S)-N-(2-(((1S,4S)-4-(3-(((1S,4S)-4-(((1R,2S,5R)-5-(Isopropyl(methyl)amino)-2-((S)-2-oxo-3-((6-(trifluoromethyl)quinazolin-4-yl)amino)pyrrolidin-1-yl)cyclohexyl)carbamoyl)cyclohexyl)amino)-3-oxopropoxy)cyclohexyl)oxy)ethyl)-1-methyl-5-oxo-2-(pyridin-3-yl)pyrrolidine-3-carboxamide] | 9.343 | 0.794
3 | CC(C)N(C)[C@@H]1CC[C@H](N2CC[C@H](Nc3ncnc4ccc(C(F)(F)F)cc34)C2=O)[C@H](NC(=O)[C@H]2CC[C@H](NC(=O)CCO[C@H]3CC[C@H](OCCNC(=O)[C@H]4CC(=O)N(C)[C@@H]4c4cccnc4)CC3)CC2)C1 [Example 113, (2S,3S)-N-(2-(((1R,4S)-4-(3-(((1R,4R)-4-(((1R,2S,5R)-5-(Isopropyl(methyl)amino)-2-((S)-2-oxo-3-((6-(trifluoromethyl)quinazolin-4-yl)amino)pyrrolidin-1-yl)cyclohexyl)carbamoyl)cyclohexyl)amino)-3-oxopropoxy)cyclohexyl)oxy)ethyl)-1-methyl-5-oxo-2-(pyridin-3-yl)pyrrolidine-3-carboxamide] | 9.767 | 3.16
4 | CC(C)N(C)[C@@H]1CC[C@H](N2CC[C@H](Nc3ncnc4ccc(C(F)(F)F)cc34)C2=O)[C@H](NC(=O)[C@H]2C[C@@H](NC(=O)CCO[C@H]3CC[C@H](OCCNC(=O)[C@H]4CC(=O)N(C)[C@@H]4c4cccnc4)CC3)C2)C1 [Example 115, (2S,3S)-N-(2-(((1S,4S)-4-(3-(((1S,3S)-3-(((1R,2S,5R)-5-(Isopropyl(methyl)amino)-2-((S)-2-oxo-3-((6-(trifluoromethyl)quinazolin-4-yl)amino)pyrrolidin-1-yl)cyclohexyl)carbamoyl)cyclobutyl)amino)-3-oxopropoxy)cyclohexyl)oxy)ethyl)-1-methyl-5-oxo-2-(pyridin-3-yl)pyrrolidine-3-carboxamide] | 9.363 | 0.158
5 | CC(C)N(C)[C@@H]1CC[C@H](N2CC[C@H](Nc3ncnc4ccc(C(F)(F)F)cc34)C2=O)[C@H](NC(=O)COCCNC(=O)COCCOCCNC(=O)CCNC(=O)[C@H]2CC(=O)N(C)[C@@H]2c2cccnc2)C1 [Example 143, (2S,3S)-N-(1-(((1R,2S,5R)-5-(Isopropyl(methyl)amino)-2-((S)-2-oxo-3-((6-(trifluoromethyl)quinazolin-4-yl)amino)pyrrolidin-1-yl)cyclohexyl)amino)-1,7,16-trioxo-3,9,12-trioxa-6,15-diazaoctadecan-18-yl)-1-methyl-5-oxo-2-(pyridin-3-yl)pyrrolidine-3-carboxamide] | 9.275 | 2.51
